Results as given in ChEMBL document CHEMBL5465560, “Selectivity Literature for EUbOPEN Chemogenomic Library” (2024).
pIC50: −log10 of the molar value.

Legend:
[1] = biological target: T1, Ephrin type-A receptor 3 (Homo sapiens) (UniProt P29320); experiment: Selectivity interaction (KinomeScan (DiscoverX)) EUB0001049a EPHA3; conditions: at 1 µM
T1 sequence (whole entry): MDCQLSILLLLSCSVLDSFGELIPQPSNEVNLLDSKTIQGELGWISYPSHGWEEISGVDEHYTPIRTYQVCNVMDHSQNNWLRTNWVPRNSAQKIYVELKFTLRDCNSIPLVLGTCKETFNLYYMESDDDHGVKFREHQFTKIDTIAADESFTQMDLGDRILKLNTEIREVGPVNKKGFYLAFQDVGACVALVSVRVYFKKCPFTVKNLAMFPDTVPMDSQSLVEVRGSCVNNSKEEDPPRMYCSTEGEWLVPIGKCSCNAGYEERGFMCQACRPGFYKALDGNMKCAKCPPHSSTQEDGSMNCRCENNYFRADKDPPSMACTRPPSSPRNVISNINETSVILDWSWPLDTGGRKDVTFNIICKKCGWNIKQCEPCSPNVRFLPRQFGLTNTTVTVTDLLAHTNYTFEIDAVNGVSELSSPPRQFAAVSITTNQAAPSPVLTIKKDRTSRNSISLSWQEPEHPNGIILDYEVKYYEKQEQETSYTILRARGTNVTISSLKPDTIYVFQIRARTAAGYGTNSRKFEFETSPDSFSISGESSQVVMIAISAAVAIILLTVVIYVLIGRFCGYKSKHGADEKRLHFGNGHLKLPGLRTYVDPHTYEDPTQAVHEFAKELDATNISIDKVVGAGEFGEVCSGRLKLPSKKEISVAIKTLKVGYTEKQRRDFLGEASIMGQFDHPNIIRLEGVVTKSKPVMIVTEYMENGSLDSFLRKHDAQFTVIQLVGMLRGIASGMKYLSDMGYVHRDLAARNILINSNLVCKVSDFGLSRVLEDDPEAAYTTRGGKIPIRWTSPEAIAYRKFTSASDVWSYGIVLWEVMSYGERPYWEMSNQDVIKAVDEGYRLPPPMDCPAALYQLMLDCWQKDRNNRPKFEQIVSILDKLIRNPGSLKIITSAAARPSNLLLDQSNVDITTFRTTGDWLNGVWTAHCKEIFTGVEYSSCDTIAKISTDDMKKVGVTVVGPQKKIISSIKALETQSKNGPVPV

[2] = biological target: Tyrosine-protein kinase JAK2 (Homo sapiens, UniProt O60674); experiment: Selectivity interaction (Kinase panel (33PanQinase(R) Activity Assay)) EUB0000877a JAK2
[3] = biological target: T2, Serine/threonine-protein kinase ULK3 (Homo sapiens) (UniProt Q6PHR2); experiment: Selectivity interaction (ActivX KiNativ screen (kinase selectivity in THP-1 cell lysates)) EUB0000639a ULK3; format: subcellular; conditions: lysate, at 0.04 µM
T2 sequence (whole entry): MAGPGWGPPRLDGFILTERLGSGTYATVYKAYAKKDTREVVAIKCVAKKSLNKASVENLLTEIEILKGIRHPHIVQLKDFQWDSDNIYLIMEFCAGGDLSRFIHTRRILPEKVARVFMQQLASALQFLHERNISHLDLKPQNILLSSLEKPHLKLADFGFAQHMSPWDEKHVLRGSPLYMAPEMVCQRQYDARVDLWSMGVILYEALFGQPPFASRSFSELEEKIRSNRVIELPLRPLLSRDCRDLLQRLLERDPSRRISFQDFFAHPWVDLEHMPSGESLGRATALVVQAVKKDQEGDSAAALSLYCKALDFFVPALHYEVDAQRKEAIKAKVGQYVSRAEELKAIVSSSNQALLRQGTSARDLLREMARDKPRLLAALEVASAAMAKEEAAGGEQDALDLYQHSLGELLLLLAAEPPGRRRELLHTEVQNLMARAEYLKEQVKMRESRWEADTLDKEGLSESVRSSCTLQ

[4] = biological target: T3, Cyclin-G-associated kinase (Homo sapiens) (UniProt O14976); experiment: Selectivity interaction (Ambit KINOMEscan and KiNATiv profiling in Jurkat cells) EUB0000090b GAK; format: cell-based; conditions: at 1 µM
T3 sequence (whole entry): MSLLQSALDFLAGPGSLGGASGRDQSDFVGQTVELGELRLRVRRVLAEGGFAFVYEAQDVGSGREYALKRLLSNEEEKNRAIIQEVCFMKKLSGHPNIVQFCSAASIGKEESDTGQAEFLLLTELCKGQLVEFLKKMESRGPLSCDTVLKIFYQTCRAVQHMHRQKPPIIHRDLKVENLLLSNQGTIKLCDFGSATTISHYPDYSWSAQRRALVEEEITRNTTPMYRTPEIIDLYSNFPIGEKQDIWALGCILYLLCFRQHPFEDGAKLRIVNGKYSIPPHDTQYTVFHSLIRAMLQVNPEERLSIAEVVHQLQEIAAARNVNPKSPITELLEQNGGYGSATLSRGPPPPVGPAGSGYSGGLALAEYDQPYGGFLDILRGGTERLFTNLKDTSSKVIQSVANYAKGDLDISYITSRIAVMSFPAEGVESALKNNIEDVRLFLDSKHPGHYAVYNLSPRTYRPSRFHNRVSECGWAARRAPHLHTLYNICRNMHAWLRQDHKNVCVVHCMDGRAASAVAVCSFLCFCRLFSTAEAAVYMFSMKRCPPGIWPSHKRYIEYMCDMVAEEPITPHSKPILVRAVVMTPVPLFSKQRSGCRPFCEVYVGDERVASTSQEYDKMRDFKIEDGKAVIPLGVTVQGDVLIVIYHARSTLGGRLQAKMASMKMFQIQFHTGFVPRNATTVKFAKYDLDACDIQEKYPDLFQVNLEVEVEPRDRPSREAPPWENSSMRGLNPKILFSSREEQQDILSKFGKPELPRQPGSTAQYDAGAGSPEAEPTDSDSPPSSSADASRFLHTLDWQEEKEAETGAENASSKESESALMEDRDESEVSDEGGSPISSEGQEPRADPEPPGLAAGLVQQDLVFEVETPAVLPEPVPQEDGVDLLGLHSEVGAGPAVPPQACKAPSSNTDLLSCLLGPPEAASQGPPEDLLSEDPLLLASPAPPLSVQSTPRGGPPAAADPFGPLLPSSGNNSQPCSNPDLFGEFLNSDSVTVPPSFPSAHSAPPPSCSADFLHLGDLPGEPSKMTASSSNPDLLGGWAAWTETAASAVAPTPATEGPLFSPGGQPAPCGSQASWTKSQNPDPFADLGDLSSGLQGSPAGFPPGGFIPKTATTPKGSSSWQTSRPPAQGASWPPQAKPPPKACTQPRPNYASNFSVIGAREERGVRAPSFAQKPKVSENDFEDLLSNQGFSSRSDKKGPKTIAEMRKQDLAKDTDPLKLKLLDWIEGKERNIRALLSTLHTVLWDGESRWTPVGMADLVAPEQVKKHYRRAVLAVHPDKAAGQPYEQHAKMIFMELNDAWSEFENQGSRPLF

[5] = test system: Phosphatidylinositol 4,5-bisphosphate 3-kinase catalytic subunit alpha isoform (Homo sapiens), P42336 [Q546K]; conditions: at 10 µM
[6] = biological target: RAC-gamma serine/threonine-protein kinase (Homo sapiens, UniProt Q9Y243); experiment: Selectivity interaction (SelectScreen profiling (Invitrogen)) EUB0000607a AKT3; conditions: at 2 µM
Chain of RAC-gamma serine/threonine-protein kinase (Q9Y243 whole entry): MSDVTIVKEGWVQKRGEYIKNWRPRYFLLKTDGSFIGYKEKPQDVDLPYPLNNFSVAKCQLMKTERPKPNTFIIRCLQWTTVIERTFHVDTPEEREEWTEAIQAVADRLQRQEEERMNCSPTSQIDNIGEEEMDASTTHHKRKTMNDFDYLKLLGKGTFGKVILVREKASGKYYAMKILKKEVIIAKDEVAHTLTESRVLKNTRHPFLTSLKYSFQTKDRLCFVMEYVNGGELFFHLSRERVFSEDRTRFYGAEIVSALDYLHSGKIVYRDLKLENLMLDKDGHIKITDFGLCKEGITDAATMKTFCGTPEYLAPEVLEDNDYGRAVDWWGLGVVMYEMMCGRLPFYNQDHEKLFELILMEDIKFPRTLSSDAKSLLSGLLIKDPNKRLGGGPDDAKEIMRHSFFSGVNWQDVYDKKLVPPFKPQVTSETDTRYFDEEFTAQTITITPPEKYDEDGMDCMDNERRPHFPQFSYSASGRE

Chain of Tyrosine-protein kinase JAK2 (O60674 whole entry): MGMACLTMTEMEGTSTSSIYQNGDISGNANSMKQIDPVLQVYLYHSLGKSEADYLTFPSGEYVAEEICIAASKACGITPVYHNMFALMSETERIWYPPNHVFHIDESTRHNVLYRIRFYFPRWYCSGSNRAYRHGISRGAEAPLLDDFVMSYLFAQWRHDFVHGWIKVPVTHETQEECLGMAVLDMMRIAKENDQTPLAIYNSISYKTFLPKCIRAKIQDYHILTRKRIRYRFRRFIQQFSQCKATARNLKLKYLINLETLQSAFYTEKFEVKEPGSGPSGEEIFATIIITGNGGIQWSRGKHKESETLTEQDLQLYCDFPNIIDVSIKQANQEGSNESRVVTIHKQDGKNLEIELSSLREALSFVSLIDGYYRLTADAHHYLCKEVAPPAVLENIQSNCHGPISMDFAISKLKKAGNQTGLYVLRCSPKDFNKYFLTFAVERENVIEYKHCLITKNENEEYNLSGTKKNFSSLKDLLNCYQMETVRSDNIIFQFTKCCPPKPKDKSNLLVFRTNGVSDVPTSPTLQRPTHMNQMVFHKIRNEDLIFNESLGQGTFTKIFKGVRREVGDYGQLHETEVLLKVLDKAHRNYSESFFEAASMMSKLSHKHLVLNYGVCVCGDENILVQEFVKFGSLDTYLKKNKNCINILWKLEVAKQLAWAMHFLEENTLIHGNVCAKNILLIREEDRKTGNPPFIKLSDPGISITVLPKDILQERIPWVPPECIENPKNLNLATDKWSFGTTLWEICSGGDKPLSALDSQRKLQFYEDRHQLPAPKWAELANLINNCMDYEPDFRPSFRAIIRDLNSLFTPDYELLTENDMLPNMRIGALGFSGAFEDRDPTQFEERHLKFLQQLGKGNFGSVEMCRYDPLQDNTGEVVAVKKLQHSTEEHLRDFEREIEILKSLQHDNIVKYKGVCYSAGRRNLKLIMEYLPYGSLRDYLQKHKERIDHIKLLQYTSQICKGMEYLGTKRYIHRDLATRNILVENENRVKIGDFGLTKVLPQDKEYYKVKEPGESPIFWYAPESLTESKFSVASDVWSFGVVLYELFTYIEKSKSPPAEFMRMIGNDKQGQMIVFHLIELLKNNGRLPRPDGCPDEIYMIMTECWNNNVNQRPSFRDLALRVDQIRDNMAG
Chain of Phosphatidylinositol 4,5-bisphosphate 3-kinase catalytic subunit alpha isoform (Homo sapiens), P42336 [Q546K] (P42336 whole entry Q546K, canonical isoform): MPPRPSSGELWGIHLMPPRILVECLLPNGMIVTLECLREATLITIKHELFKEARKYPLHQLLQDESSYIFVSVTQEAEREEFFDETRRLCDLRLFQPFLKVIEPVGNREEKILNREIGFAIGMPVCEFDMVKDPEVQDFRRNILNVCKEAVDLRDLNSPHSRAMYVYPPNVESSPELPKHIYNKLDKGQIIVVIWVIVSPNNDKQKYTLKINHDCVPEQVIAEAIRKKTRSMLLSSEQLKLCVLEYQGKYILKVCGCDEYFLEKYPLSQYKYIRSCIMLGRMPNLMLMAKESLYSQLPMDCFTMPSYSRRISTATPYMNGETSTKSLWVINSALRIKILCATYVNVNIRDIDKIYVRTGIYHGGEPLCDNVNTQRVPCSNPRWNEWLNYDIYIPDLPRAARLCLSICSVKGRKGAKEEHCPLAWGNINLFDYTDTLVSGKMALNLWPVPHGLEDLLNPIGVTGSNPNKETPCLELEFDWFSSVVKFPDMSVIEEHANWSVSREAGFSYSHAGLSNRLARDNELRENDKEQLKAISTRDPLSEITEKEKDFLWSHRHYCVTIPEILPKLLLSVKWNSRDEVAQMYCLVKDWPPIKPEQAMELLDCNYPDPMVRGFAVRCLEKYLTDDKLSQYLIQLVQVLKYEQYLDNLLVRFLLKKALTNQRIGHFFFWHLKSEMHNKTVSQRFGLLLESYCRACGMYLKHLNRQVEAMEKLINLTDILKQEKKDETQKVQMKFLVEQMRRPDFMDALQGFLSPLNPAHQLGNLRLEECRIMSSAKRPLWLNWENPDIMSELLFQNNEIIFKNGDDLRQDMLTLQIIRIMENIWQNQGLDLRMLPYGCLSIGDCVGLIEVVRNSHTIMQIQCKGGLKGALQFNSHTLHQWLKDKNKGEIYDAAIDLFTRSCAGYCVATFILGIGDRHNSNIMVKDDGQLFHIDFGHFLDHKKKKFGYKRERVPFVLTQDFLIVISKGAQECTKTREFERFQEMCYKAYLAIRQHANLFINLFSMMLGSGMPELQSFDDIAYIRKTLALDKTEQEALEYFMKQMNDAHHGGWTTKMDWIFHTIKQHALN

In the case of COc1cc(Nc2nc(C)cc(-c3cnn4nc(OC)ccc34)n2)cc(C(F)(F)F)c1, the % of control [1] was 80%.
CCC(=O)N1CC[C@H](Nc2ncnc3c2CN(c2cnc(OC)c(C(F)(F)F)c2)CC3)C1 [LENIOLISIB] gave a pIC50 [2] of less than 5.00.
Compound CC[C@@H]1[C@H](F)C(=O)N[C@@H]1COc1nccc2cc(C(N)=O)c(OC)cc12 [ZIMLOVISERTIB] has a % of inhibition [3] of -22.9%.
With CN(C)C/C=C/C(=O)Nc1ccc(C(=O)N2CCCC(Nc3ncc(Cl)c(-c4c[nH]c5ccccc45)n3)C2)cc1 (stereo unspecified) the % of control [4] was 93%.
In the case of CNC(=O)Nc1ccc(-c2nc(N3CC4CCC(C3)O4)c3cnn(C4CCC5(CC4)OCCO5)c3n2)cc1, the % of control [5] was 11% and the % of inhibition [6] was 2%.
